What was measured:
Experiment in all cases: GOT/MDH-coupled aspartate release, NADH oxidation; Hanes-Woolf
Assay type in all cases: biochemical, Pinus pinaster
Settings in all cases: 50 mM HEPES pH 7.8, 50 mM KCl
PpASPG1 [1] = tested on: T1, PpASPG1
T1 construct: full ORF (1128 nt, 375 residues incl. 77-residue variable loop), expressed in Nicotiana benthamiana; conventional purification, untagged by the measured beta mass; autocleaved before Thr245 into alpha (26,431 Da, Met1 removed) and beta (13,325 Da); plant ASPG (alpha beta)2
Description: GOT/MDH-coupled aspartate release, NADH oxidation; Hanes-Woolf on […]1 | changes in the Km and Vmax values for L-Asn and β-L-Asp-L-Ala (Supplementary Table S3)

PpASPG1 [2] = tested on: T1, PpASPG1; remark: listed apart in the source
PpASPG3 = tested on: T2, PpASPG3
T2 construct: full ORF (918 nt, 305 residues) with C-terminal HA and poly-His tag, expressed in Nicotiana benthamiana, Ni-TED purified; partly processed into alpha and beta subunits

| Structure (SMILES) | Km (PpASPG1 [1]; deletion variant with C-terminal HA and poly-His tag, partly unprocessed precursor) [mM] | Km (PpASPG1 [2]) [mM] | Km (PpASPG3) [mM] | Km (PpASPG1 [1]) [mM] |
| --- | --- | --- | --- | --- |
| NC(=O)C[C@H](N)C(=O)O [L-Asn] | 7.16 ± 0.88 | 4.58 ± 0.03 | 6.12 ± 0.96 | – |
| C[C@H](NC(=O)C[C@H](N)C(=O)O)C(=O)O [β-L-Asp-L-Ala] | – | 56.7 ± 13.9 | 1.04 ± 0.21 | 9.44 ± 0.82 |
